One test concerns the target T1, 5-LO/FLAP (Homo sapiens, UniProt P09917).
T1 construct: expressed in transfected cells; host or cells: HEK-293, stably transfected
T1 sequence (P09917 1-674): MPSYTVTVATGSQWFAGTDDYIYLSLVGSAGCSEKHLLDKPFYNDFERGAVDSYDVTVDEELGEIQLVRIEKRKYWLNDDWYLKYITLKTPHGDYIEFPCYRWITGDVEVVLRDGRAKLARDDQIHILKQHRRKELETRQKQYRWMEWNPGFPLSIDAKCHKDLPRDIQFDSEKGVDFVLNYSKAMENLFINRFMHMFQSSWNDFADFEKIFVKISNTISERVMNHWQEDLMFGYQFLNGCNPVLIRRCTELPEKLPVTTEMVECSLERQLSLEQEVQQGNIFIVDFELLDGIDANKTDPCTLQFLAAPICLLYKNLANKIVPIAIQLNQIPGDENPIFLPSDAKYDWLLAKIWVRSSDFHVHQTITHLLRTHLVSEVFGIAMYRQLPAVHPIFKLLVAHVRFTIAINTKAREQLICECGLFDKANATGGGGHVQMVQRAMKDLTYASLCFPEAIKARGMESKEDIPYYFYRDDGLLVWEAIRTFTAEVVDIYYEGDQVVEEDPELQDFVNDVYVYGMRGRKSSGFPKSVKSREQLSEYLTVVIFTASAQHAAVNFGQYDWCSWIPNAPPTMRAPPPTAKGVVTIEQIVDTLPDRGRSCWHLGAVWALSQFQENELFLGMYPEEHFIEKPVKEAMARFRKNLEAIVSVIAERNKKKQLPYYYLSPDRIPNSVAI
Kind of test: Subcellular localization of 5-LO and FLAP by immunofluorescence microscopy in HEK293 cells. Conditions: HEK293 cells expressing 5-LO and FLAP, 3 μM (Fig. 4D) or 10 μM (method). In kind it is cell-based. How it is done:
Subcellular localization of 5-LO and FLAP was analyzed by immunofluorescence (IF) microscopy. In brief, HEK-293 cells expressing 5-LO/FLAP were seeded onto acid-washed (50 % sulfuric acid) and poly-L-lysine (0.01 %)-coated glass coverslips and cultured for 48 h at 37 °C until ∼60 % confluency. Cells were pre-incubated with 10 μM of compounds or vehicle (0.1 % DMSO) for 10 min before stimulation with 2.5 μM A23187 for 20 min at 37 °C. After fixation with 4 % paraformaldehyde solution, followed by permeabilization by using 50 mM ammonium chloride and acetone (3 min, 4 °C), cells were incubated with 10 % non-immune goat serum blocking solution for 1 h. Then, cells were incubated over night with mouse monoclonal anti-5-LO antibody (1:100) and rabbit polyclonal anti-FLAP antibody ([…]). The coverslips were intensively washed with PBS before staining with the fluorophore-labeled secondary antibodies Alexa Fluor 488 goat anti-rabbit (1:500) and Alexa Fluor 555 goat anti-mouse (1:500) for 20 min in the dark. The coverslips were mounted on glass slides with Mowiol containing 2.5 % n-propyl gallate and 4,6-diamidin-2-phenylindol (DAPI; Invitrogen, Carlsbad, CA), a staining for nuclear DNA. Samples were analyzed by a Zeiss Axio-vert 200 M microscope, and a Plan Neofluar _ 100/1.30 Oil (DIC III) objective (Carl Zeiss, Jena, Germany). […]

For test [1], the system named is 5-LO. Details: method as in PMID 32220788. Conditions: read-out: IC50 against 5-LO; cited from earlier work.
Test [2] concerns the target T2, 5-LO (Homo sapiens, UniProt P09917).
T2 sequence (P09917 1-674): T1 sequence (P09917 1-674)
Kind of test: 5-LO product formation in intact human PMNL (neutrophils). It is filed as cell-based. Details: endogenous in cells; host or cells: human PMNL from peripheral blood of healthy volunteers. Conditions: for IC50: intact human PMNL. The procedure: PMNL and monocytes were isolated from human peripheral blood of adult healthy volunteers, with consent, obtained from the Institute of Transfusion Medi-cine, University Hospital Jena (Germany). PMNL were immediately isolated by dextran sedi-mentation, centrifugation on Nycoprep cushions, and hypotonic lysis of erythrocytes, as described. PMNL viability was analyzed by trypan blue exclusion with a Vi-cell counter (Beckmann Coulter GmbH, Krefeld). HEK-293 cells were grown in DMEM/High Glucose (4.5 g/L) medium supplemented with heat-inactivated fetal calf serum (FCS, 10 %, vv_1), 100 U/mLpenicillin, and 100 µg/mL streptomycin at 37 °C in a 5 % CO2 incubator. HEK-293 cells were stably transfected with 5-LO and FLAP as validated experimental cell-based model for studying the regulation of 5-LO [28]. None of the cell lines used in this study were authenticated.
Freshly isolated human PMNL (5 × 10^6) were resuspended in 1 mL PBS buffer containing 1 mg/mL glucose (PG buffer). […] After 10 min at 37 °C, the reaction was stopped with 1 mL of methanol for 10 min on ice and LO products formed and released in the supernatants were extracted and analyzed by HPLC. In detail, after centrifugation (800g, 10 min, room temperature) the samples were applied to C-18 solid-phase extraction columns (100 mg; IST, Mid Glamorgan, United Kingdom), preconditioned with 1 mL methanol and 1 mL water. The columns were washed with 1 mL water and 1 mL water/methanol (75/25, vol/vol) and 5-LO metabolites were eluted with 300 μL methanol. The extract was then diluted with 120 μL water, and 100 μL diluted extract were analyzed by HPLC using a C-18 Radial-Pak column (Waters) eluted with methanol/water/acetic acid 75/25/0.1 (vol/vol/vol) at a flow rate of 1.2 mL/min. Amounts of different metabolites were determined by peak area integration. 5-LO products analyzed include LTB4 and its two all-trans isomers, 5(S)-hydroxy-6-trans-8,11,14-cis-eicosatetraenoic acid (5-HETE), and 5(S)-hydroper-oxy-6-trans-8,11,14-cis-eicosatetraenoic acid (5-HpETE). 5-HETE and 5-HpETE coelute as one major peak, and the integration of this peak represented both eicosanoids.

The mark [3] stands for this setting: Cell-based A23187 (IC50 of 5-LO product formation), […] A23187, 10 min.
[4] abbreviates: Cell-based A23187 + AA (IC50 of 5-LO product formation), […] A23187 plus 20 μM AA, 10 min.

By IC50 is commonly meant the midpoint of a concentration-inhibition curve.

Turning to `CCCC/C=C\CCCCCCCCCc1cccc(O)c1O` [CI, (Z)-3-(pentadec-10′-enyl)-catechol], the “A23187-induced 5-LO translocation / colocalization with FLAP” value at 5-LO/FLAP is reported as “able to block”. Also, the IC50 in the test with 5-LO [1] was 2090 nM; against 5-LO [2] (setting [3]) it was 260 nM; at 5-LO [2] (setting [4]), 90 nM. Also, the “fold greater potency compared to hydrogenated analogue CS” value at 5-LO [2] (comparison of IC50 values (neutrophils and cell-free)) is 2.5- to 3 fold.

For `CCCCCCCCCCCCCCCc1cccc(O)c1O` [CS, 3-n-pentadecylcatechol], the “A23187-induced 5-LO translocation / colocalization with FLAP” value on 5-LO/FLAP is on record as “not successful”. In addition, the 50% inhibitory concentration (IC50) in the test on 5-LO [1] is 2740 nM; on 5-LO [2] (setting [3]), 800 ± 500 nM; at 5-LO [2] (setting [4]) it was 70 nM.

The values above are taken from article PMC12523804, “Evaluation of molecular mechanisms of (Z)-3-(pentadec-10′-enyl)-catechol (litreol) and synthetic derivatives as inhibitors of human leukotriene biosynthesis” (Redox Biology, 2025).
